Source: patent publication US20060159780A1, “Prevention and amelioration of acetaminophen toxicity with tea melanin” (National Chiao Tung University, priority 2005, published 2006)

Assays:
[1] = system: ICR mice; experiment: Toxicity of NAPAP in mice: mortality and behaviour; format: in vivo
Experimental: (§1) Adult male ICR mice (30±5 g) were employed for all experiments. Animals were housed under controlled condition (25±2° C.) and 12 h light/dark cycle, and allowed free access to food and water, but fasted overnight before treatment. Animals were divided into several groups including control group (not receiving any treatment), negative control (receiving TSM alone), positive control (receiving only NAPAP), and experimental groups receiving NAPAP and TSM together. Each experimental group consisted of 6 mice. NAPAP was dissolved in normal saline (pH 7.4) and administered inraperitonially (i.p.) with a dose of 400 mg/kg. TSM was dissolved in distillate water at pH 7.2 and administered i.p. with doses of 10, 20, 30, or 40 mg/kg 2 h before intoxication. All animals were sacrificed by ether anesthesia 24 h after the NAPAP exposure. Blood samples were withdrawn by cardiac puncture for determination of alanine aminotransferase (ALT) activity using commercially available kit (Sigma 505-P). Liver was isolated and perfused with normal saline to wash out the blood. It was then used for determination of GSH, oxidized glutathione (GSSG), superoxide dismutase (SOD), thiobarbituric acid reactive substances (TBARS), and reduced forms of coenzymes Q9 (CoQ9) and Q10 (CoQ10).
The behavior of the animals in experimental group resembled the control group by movement activity. […]

[2] = system: alanine aminotransferase (ALT) activity; experiment: Alanine aminotransferase (ALT) activity in blood of NAPAP-intoxicated mice; format: in vivo; conditions: NAPAP 400 mg/kg i.p. alone; 24 h of exposure; mean ± SEM
Experimental: as §1

[3] = system: hepatic GSH; experiment: Hepatic GSH assay; format: in vivo, mice
Experimental: as §1, with “Blood samples were withdrawn by cardiac puncture for determination of alanine aminotransferase (ALT) activity using commercially available kit (Sigma 505-P). Liver was isolated and perfused with normal saline to wash out the blood. It was then used for determination of GSH, oxidized glutathione (GSSG), superoxide dismutase (SOD), thiobarbituric acid reactive substances (TBARS), and reduced forms of coenzymes Q9 (CoQ9) and Q10 (CoQ10).” left out
(§2) Frozen liver tissue was homogenized in 5% trichloroacetic acid (TCA) supplemented with 5 mM EDTA under a stream of nitrogen gas, then centrifuged at 20,000 g for 10 min at 4° C. […] The total hepatic glutathione level representing the sum of GSH and GSSG was determined using dithiobis-2-nitrobenzoic acid (Griffith, O. W. Anal. Biochem. 1980, 106, 207-212). The GSSG level was determined after elimination of GSH by reaction with 2-vinylpyridine, and the actual GSH level was calculated by subtracting the GSSG level from the total glutathione.

[4] = system: oxidized glutathione (GSSG); experiment: Hepatic GSSG assay; format: in vivo, mice; conditions: NAPAP 400 mg/kg i.p. alone; liver, 24 h; mean ± SEM
Experimental: as §1, with “Blood samples were withdrawn by cardiac puncture for determination of alanine aminotransferase (ALT) activity using commercially available kit (Sigma 505-P). Liver was isolated and perfused with normal saline to wash out the blood. It was then used for determination of GSH, oxidized glutathione (GSSG), superoxide dismutase (SOD), thiobarbituric acid reactive substances (TBARS), and reduced forms of coenzymes Q9 (CoQ9) and Q10 (CoQ10).” left out
as §2

[5] = system: superoxide dismutase (SOD); experiment: Superoxide dismutase assay in mouse liver; format: in vivo, mice; conditions: NAPAP alone, FIG. 2
Experimental: as §1, with “Blood samples were withdrawn by cardiac puncture for determination of alanine aminotransferase (ALT) activity using commercially available kit (Sigma 505-P). Liver was isolated and perfused with normal saline to wash out the blood. It was then used for determination of GSH, oxidized glutathione (GSSG), superoxide dismutase (SOD), thiobarbituric acid reactive substances (TBARS), and reduced forms of coenzymes Q9 (CoQ9) and Q10 (CoQ10).” left out
Determination of superoxide dismutase activity in mouse liver was based on inhibition of nitrite formation in reaction of oxidation of hydroxylammonium with superoxide anion radical (Elstner, E. F. and Heupel, A. Anal. Biochem. 1976, 70, 616-620). […] Optical absorbance at 530 nm was measured with Ultrospec III spectrophotometer (Pharmacia, LKB). The results were expressed as units of SOD activity calculated per milligram of protein.

[6] = system: CoQ9; experiment: Coenzymes Q assay in liver: CoQ9; format: in vivo, mice; conditions: NAPAP 400 mg/kg itself, FIG. 3
Experimental: as §1, with “It was then used for determination of GSH, oxidized glutathione (GSSG), superoxide dismutase (SOD), thiobarbituric acid reactive substances (TBARS), and reduced forms of coenzymes Q9 (CoQ9) and Q10 (CoQ10).” left out
(§3) Determination of reduced forms of CoQ9 and CoQ10 was carried out by the method of Ikenoya et al. (Ikenoya, S. et al., Chem Pharm Bull. 1981, 29, 158-164). […] The extract was analyzed using HPLC with Jasco 840 EC detector and Chemosorb ODS-H column (4.6×250 mm). […]

[7] = system: CoQ10; experiment: Coenzymes Q assay in liver: CoQ10; format: in vivo, mice; conditions: NAPAP 400 mg/kg itself, FIG. 3
Experimental: as §1, with “It was then used for determination of GSH, oxidized glutathione (GSSG), superoxide dismutase (SOD), thiobarbituric acid reactive substances (TBARS), and reduced forms of coenzymes Q9 (CoQ9) and Q10 (CoQ10).” left out
as §3

[8] = system: antibody-forming cells (AFC) of splenocytes; experiment: Antibody-producing response (AFC plaque assay) after SRBC sensitization; format: in vivo; conditions: NAPAP 400 mg/kg i.p.; SRBC-sensitized ICR mice
Experimental: Experiments were performed on 10 groups of intact ICR mice consisting of 4 animals each. The first 5 groups were injected i.p. with the following single doses of TSM: 0, 10, 20, 30, and 40 mg/kg. The second 5 groups were injected similarly to the first groups with TSM, but after 2 h animals were again injected (i.p.) with 400 mg/kg NAPAP. One day after administration of TSM or TSM+NAPAP, mice were injected into the tail vein with 1×10^8 sheep red blood cells (SRBC) prepared in 0.2 mL of saline. An additional 4 animals received only SRBC (antigen control). Four days after their sensitization with SRBC, animals were sacrificed, and their spleens were removed. Single splenocytes were prepared from each spleen in 5 mL of RPMI-1640 media. Enumeration of the antibody-forming cells (AFC) was performed using a plaque assay (Jerne, N. K. and Nordin, A. A. Science 1963, 140, 405). AFC values were calculated for 10^6 splenocytes.

CC(=O)Nc1ccc(O)cc1 [NAPAP, N-Acetyl-p-aminophenol]
Animal lethality ([1]; NAPAP 400 mg/kg administered alone): 66% | Mortality (dead/total) ([1]; NAPAP 400 mg/kg i.p. alone, 24 h of exposure): 2/6 | ALT [2]: 2043 U/L | GSH ([3]; NAPAP 400 mg/kg i.p. alone, liver, 24 h, mean ± SEM): 13 ± 1 nmol/mg prot. | depletion of GSH level as compared to control ([3]; NAPAP alone, 24 h after administration): 2.6 fold | GSSG [4]: 3.2 ± 0.4 nmol/mg prot. | decrease of SOD activity as compared to control [5]: ~4 fold | content of CoQ9 diminished, compared to negative control [6]: 60% | coenzyme Q10 content diminished, compared to negative control [7]: 55% | suppression of AFC against the antigen control level [8]: 26%
